Experimental data from US12319652B2, “Salts and solid forms of (R)-1-(5-methoxy-1H-indol-1-yl)-N,N-dimethylpropan-2-amine” (priority 2021, dated 2025).
Like-named read-outs stand apart in the source and are kept apart here.

Type: physicochemical
Procedure: Equilibrium Humidity Evaluation (40° C./75% RH for 10 Days)
100 mg portions of compound 1 salts (for inputs see table below) were placed in the relevant open vials. The powders were finely divided and distributed evenly over the base of the vial, such that equal material coverage across the panel was observed. These samples were then maintained 40°C. under 75% RH. The samples were sub-sampled at intervals of 5 and 10 days and analysed by ^1H NMR, HPLC, XRPD, DSC, TGA and PLM, for evidence of phase change or chemical degradation (FIG. 269-297).

SMILES | HPLC peak RRT 1.00 (reference peak) (salt before storage (t = 0)) | HPLC peak RRT 1.19 (salt before storage (t = 0)) | HPLC peak RRT 1.20 (salt before storage (t = 0)) | HPLC peak RRT 1.26 (salt before storage (t = 0)) | HPLC peak RRT 1.35 (salt before storage (t = 0)) | HPLC peak RRT 0.98 (t = 5 d at 75% RH at 40° C.) | HPLC peak RRT 1.00 (reference peak) (t = 5 d at 75% RH at 40° C.) | HPLC peak RRT 1.19 (t = 5 d at 75% RH at 40° C.) | HPLC peak RRT 1.20 (t = 5 d at 75% RH at 40° C.) | HPLC peak RRT 1.26 (t = 5 d at 75% RH at 40° C.) | HPLC peak RRT 1.35 (t = 5 d at 75% RH at 40° C.) | HPLC peak RRT 0.98 (t = 10 d at 75% RH at 40° C.) | HPLC peak RRT 1.00 (reference peak) (t = 10 d at 75% RH at 40° C.) | HPLC peak RRT 1.19 (t = 10 d at 75% RH at 40° C.) | HPLC peak RRT 1.26 (t = 10 d at 75% RH at 40° C.) | HPLC peak RRT 1.35 (t = 10 d at 75% RH at 40° C.) | HPLC peak RRT 0.93 (salt before storage (t = 0)) | HPLC peak RRT 0.98 (salt before storage (t = 0)) | HPLC peak RRT 0.93 (t = 5 d at 75% RH at 40° C.) | HPLC peak RRT 0.93 (t = 10 d at 75% RH at 40° C.) | other results
COc1ccc2c(ccn2C[C@@H](C)N(C)C)c1.O=C(O)c1ccccc1 [Benzoate salt] | 99.64 | 0.10 | 0.02 | 0.01 | 0.10 | 0.04 | 99.64 | 0.10 | 0.02 | 0.05 | 0.11 | 0.04 | 99.52 | 0.13 | 0.07 | 0.12 | – | – | – | – | HPLC peak RRT 1.09 (salt before storage (t = 0)): 0.03; HPLC peak RRT 1.16 (salt before storage (t = 0)): 0.03; HPLC peak RRT 1.24 (salt before storage (t = 0)): 0.06; HPLC peak RRT 1.16 (t = 5 d at 75% RH at 40° C.): 0.03; HPLC peak RRT 1.08 (t = 10 d at 75% RH at 40° C.): 0.05; HPLC peak RRT 1.16 (t = 10 d at 75% RH at 40° C.): 0.04; HPLC peak RRT 1.20 (t = 10 d at 75% RH at 40° C.): 0.02
COc1ccc2c(ccn2C[C@@H](C)N(C)C)c1.O=C(O)/C=C\C(=O)O [Maleate salt] | 99.22 | 0.08 | – | – | – | 0.03 | 99.09 | 0.10 | – | – | – | 0.05 | 98.30 | 0.09 | 0.06 | – | 0.03 | 0.06 | 0.05 | 0.06 | HPLC peak RRT 1.10 (salt before storage (t = 0)): 0.28; HPLC peak RRT 1.13 (salt before storage (t = 0)): 0.14; HPLC peak RRT 1.17 (salt before storage (t = 0)): 0.02; HPLC peak RRT 1.18 (salt before storage (t = 0)): 0.03; HPLC peak RRT 1.25 (salt before storage (t = 0)): 0.03; HPLC peak RRT 1.34 (salt before storage (t = 0)): 0.11; HPLC peak RRT 0.84 (t = 5 d at 75% RH at 40° C.): 0.31; HPLC peak RRT 1.13 (t = 5 d at 75% RH at 40° C.): 0.21; HPLC peak RRT 1.34 (t = 5 d at 75% RH at 40° C.): 0.22; HPLC peak RRT 0.84 (t = 10 d at 75% RH at 40° C.): 0.65; HPLC peak RRT 1.13 (t = 10 d at 75% RH at 40° C.): 0.33; HPLC peak RRT 1.22 (t = 10 d at 75% RH at 40° C.): 0.09; HPLC peak RRT 1.25 (t = 10 d at 75% RH at 40° C.): 0.02; HPLC peak RRT 1.28 (t = 10 d at 75% RH at 40° C.): 0.05; HPLC peak RRT 1.32 (t = 10 d at 75% RH at 40° C.): 0.10; HPLC peak RRT 1.34 (t = 10 d at 75% RH at 40° C.): 0.19
COc1ccc2c(ccn2C[C@@H](C)N(C)C)c1.Cl [HCl salt] | 99.60 | – | 0.01 | 0.16 | 0.04 | 0.02 | 99.42 | – | 0.02 | 0.02 | 0.04 | 0.01 | 99.60 | – | – | 0.02 | 0.01 | 0.02 | 0.05 | 0.05 | HPLC peak RRT 0.99 (salt before storage (t = 0)): 0.01; HPLC peak RRT 1.22 (salt before storage (t = 0)): 0.11; HPLC peak RRT 1.30 (salt before storage (t = 0)): 0.03; HPLC peak RRT 1.32 (salt before storage (t = 0)): 0.01; HPLC peak RRT 1.22 (t = 5 d at 75% RH at 40° C.): 0.42; HPLC peak RRT 1.28 (t = 5 d at 75% RH at 40° C.): 0.02; HPLC peak RRT 1.22 (t = 10 d at 75% RH at 40° C.): 0.31
